Measured values: ChEMBL document CHEMBL1132789, “Synthesis and estrogen receptor binding affinities of novel pyrrolo[2,1,5-cd]indolizine derivatives” (Bioorg Med Chem Lett, 2000)

target: Estrogen receptor (Homo sapiens, UniProt Q92731+P03372)
Description: Inhibitory activity against Estrogen receptor by displacement of [3H]17-beta-estradiol in ER-rich cytosol from rabbit uterine tissue

| SMILES | IC50 |
| --- | --- |
| CCc1c(-c2ccccc2)c2ccc3c(O)ccc1n32 | 180 nM |
| Cc1c(-c2ccc(O)cc2)c2ccc3cccc1n32 | 28 nM |
| Oc1ccc(C2=c3ccc4n3C(C=CC=4)C2CCc2ccccc2)cc1 (stereo unspecified) | 180 nM |
| CCc1c(-c2ccccc2)c2ccc3cc(O)cc1n32 | 1300 nM |
| CCCc1c(-c2ccc(O)cc2)c2ccc3cccc1n32 | 5 nM |
| CC(C)c1c(-c2ccc(O)cc2)c2ccc3cccc1n32 | 8 nM |
| CCc1c(-c2ccc(O)cc2)c2ccc3ccc(CO)c1n32 | 12 nM |
| CCc1c(-c2ccc(O)cc2)c2ccc3cccc1n32 | 9.5 nM |
| CCc1c(-c2ccc(O)cc2)c2ccc3cc(O)cc1n32 | 0.9 nM |
| CCCC(C)C1C(c2ccc(O)cc2)=c2ccc3n2C1C=CC=3 (stereo unspecified) | 950 nM |
| CCCCC1C(c2ccc(O)cc2)=c2ccc3n2C1C=CC=3 (stereo unspecified) | 200 nM |
| CCc1c(-c2ccc(O)cc2)c2ccc3c(O)ccc1n32 | 0.9 nM |
| CCc1c(-c2cccc(O)c2)c2ccc3cccc1n32 | 370 nM |
| Oc1ccc(C2=c3ccc4n3C3C(=CC=4)CCCC23)cc1 (stereo unspecified) | 30 nM |
| Oc1ccc(C2=c3ccc4n3C3C(=CC=4)CCCCC23)cc1 (stereo unspecified) | 25 nM |
| Oc1ccc(-c2cc3cccc4ccc2n43)cc1 | 700 nM |
